Measured values as given in PMC9090415, “Discovery of small molecule inhibitors of Plasmodium falciparum apicoplast DNA polymerase” (Journal of Enzyme Inhibition and Medicinal Chemistry, 2022).

Target: P. falciparum apicoplast DNA polymerase (Pf-apPOL) (Plasmodium falciparum, UniProt Q8ILY1)
Assay: Fluorescence-based high-throughput DNA polymerase assay (molecular beacon), primary screen and dose-response;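 on % inhibition ApPOL 90': test concentration in µM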;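 on % inhibition apPOL 180': test concentration in µM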
Assay type: biochemical
How it was run: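 Single-point screening used 10 µM compound with 20 nM polymerase, 20 nM hairpin substrate and 6 µM dNTPs for 90 min at 25 °C. Confirmatory titrations (2.5–80 µM) followed fluorescence at three times, and IC50 was derived from a fit including a cooperativity term n.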

P. falciparum apicoplast DNA polymerase (Pf-apPOL), sequence (Q8ILY1 entry or part of it): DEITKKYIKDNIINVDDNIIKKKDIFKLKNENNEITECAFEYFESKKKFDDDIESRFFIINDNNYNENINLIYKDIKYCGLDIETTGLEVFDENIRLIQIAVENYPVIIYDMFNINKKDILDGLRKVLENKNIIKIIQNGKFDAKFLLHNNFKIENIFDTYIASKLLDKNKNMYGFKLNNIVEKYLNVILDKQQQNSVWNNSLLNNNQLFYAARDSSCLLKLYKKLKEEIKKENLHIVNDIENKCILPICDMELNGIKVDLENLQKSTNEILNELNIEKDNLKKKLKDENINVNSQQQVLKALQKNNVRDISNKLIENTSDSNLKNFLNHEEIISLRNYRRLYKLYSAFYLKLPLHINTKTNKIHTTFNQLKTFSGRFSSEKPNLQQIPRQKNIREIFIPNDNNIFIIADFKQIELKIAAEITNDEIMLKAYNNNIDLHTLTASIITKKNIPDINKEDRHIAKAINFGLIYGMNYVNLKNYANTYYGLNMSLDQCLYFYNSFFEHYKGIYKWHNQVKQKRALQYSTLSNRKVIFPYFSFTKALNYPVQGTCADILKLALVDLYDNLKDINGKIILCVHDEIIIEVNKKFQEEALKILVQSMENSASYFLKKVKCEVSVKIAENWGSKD

What does the source list for `COc1ccc(NC(=O)Cn2nc3c(cc2=O)CCC3)cc1Cl` [Molecule 4, COc1ccc(cc1Cl)NC(=O)Cn1nc2CCCc2cc1=O]?
% inhibition Apo pol 10' (DRC-1; concentration 2.5; 10'): -1.67%; % inhibition Apol 90' (DRC-1; concentration 2.5; 90'): -5%; % inhibition apPOL 180' (DRC-1; concentration 2.5; 180'): -9%; % inhibition Apo pol 10' (DRC-1; concentration 5; 10'): 44%; % inhibition Apol 90' (DRC-1; concentration 5; 90'): 29%; % inhibition apPOL 180' (DRC-1; concentration 5; 180'): 17%; % inhibition Apo pol 10' (DRC-1; concentration 10; 10'): 88%; % inhibition Apol 90' (DRC-1; concentration 10; 90'): 78%; % inhibition apPOL 180' (DRC-1; concentration 10; 180'): 66%; % inhibition Apo pol 10' (DRC-1; concentration 20; 10'): 94%; % inhibition Apol 90' (DRC-1; concentration 20; 90'): 90%; % inhibition apPOL 180' (DRC-1; concentration 20; 180'): 86%; % inhibition Apo pol 10' (DRC-1; concentration 40; 10'): 93%; % inhibition Apol 90' (DRC-1; concentration 40; 90'): 92%; % inhibition apPOL 180' (DRC-1; concentration 40; 180'): 91%; % inhibition Apo pol 10' (DRC-1; concentration 80 (unit not given); 10'): 89%; % inhibition Apol 90' (DRC-1; concentration 80; 90'): 90%; % inhibition apPOL 180' (DRC-1; concentration 80; 180'): 91%; % inhibition Apol 40' (DRC-2; 40'; concentration 10): 69%; % inhibition Apol 40' (DRC-2; 40'; concentration 20): 69%; % inhibition ApPOL 90' (DRC-2; 90'; concentration 10): 71%; % inhibition ApPOL 90' (DRC-2; 90'; concentration 80): 71%; % inhibition apPOL 180' (DRC-2; 180'; concentration 5): 44%; % inhibition apPOL 180' (DRC-2; 180'; concentration 10): 69%; % inhibition apPOL 180' (DRC-2; 180'; concentration 40): 78%; % inhibition Apo pol 5' (DRC-2; concentration 2.5; 5'): 19%; % inhibition Apol 40' (DRC-2; concentration 2.5; 40'): 18%; % inhibition ApPOL 90' (DRC-2; concentration 2.5; 90'): 16%; % inhibition apPOL 180' (DRC-2; concentration 2.5; 180'): 8%; % inhibition Apo pol 5' (DRC-2; concentration 5; 5'): 46%; % inhibition Apol 40' (DRC-2; concentration 5; 40'): 55%; % inhibition ApPOL 90' (DRC-2; concentration 5; 90'): 54%; % inhibition apPOL 180' (DRC-2; concentration 5; 180'): 44%; % inhibition Apo pol 5' (DRC-2; concentration 10; 5'): 52%; % inhibition Apol 40' (DRC-2; concentration 10; 40'): 69%; % inhibition ApPOL 90' (DRC-2; concentration 10; 90'): 71%; % inhibition apPOL 180' (DRC-2; concentration 10; 180'): 69%; % inhibition Apo pol 5' (DRC-2; concentration 20; 5'): 49%; % inhibition Apol 40' (DRC-2; concentration 20; 40'): 69%; % inhibition ApPOL 90' (DRC-2; concentration 20; 90'): 73%; % inhibition apPOL 180' (DRC-2; concentration 20; 180'): 75%; % inhibition Apo pol 5' (DRC-2; concentration 40; 5'): 50%; % inhibition Apol 40' (DRC-2; concentration 40; 40'): 70%; % inhibition ApPOL 90' (DRC-2; concentration 40; 90'): 74%; % inhibition apPOL 180' (DRC-2; concentration 40; 180'): 78%; % inhibition Apo pol 5' (DRC-2; concentration 80; 5'): 43%; % inhibition Apol 40' (DRC-2; concentration 80; 40'): 65%; % inhibition ApPOL 90' (DRC-2; concentration 80; 90'): 71%; % inhibition apPOL 180' (DRC-2; concentration 80; 180'): 76%; % inhibition Apo pol 10' (first dose-response set; 10'; concentration 5): 44%; % inhibition Apol 90' (first dose-response set; 90'; concentration 10): 78%; % inhibition Apol 90' (first dose-response set; 90'; concentration 20): 90%; % inhibition Apol 90' (first dose-response set; 90'; concentration 80): 90%; % inhibition apPOL 180' (first dose-response set; 180'; concentration 40): 91%; % inhibition apPOL 180' (first dose-response set; 180'; concentration 80): 91%; DNA Pol (primary screen value of the 186 hits; unit not given; 90 min, 10 µM): 45; DNA Pol (primary screen value; head prints only 'DNA Pol'; 90 min, 10 µM): 45
